From US9512178B2, “Neurogenic brain-derived neurotrophic factor peptides” (Research Foundation for Mental Hygiene, Inc., priority 2012, dated 2016)

Assays:
[1] = system: mouse E18 primary hippocampal neurons; assay: Toxicity of the peptides: phase contrast morphology and LDH assay, 5 days treatment; type: cell-based
Source text: To screen these peptides, primary neuronal cell cultures were used from embryonic day 18 (E18) C57BL/6 mouse hippocampus. At the fourth day in vitro (DIV), the culture medium was exchanged with the medium containing the peptides. The primary neuronal cultures were established as taught in the art (see, e.g., Cardenas-Aguayo Mdel, Santa-Olalla et al. 2003, hereby incorporate by reference). Briefly, C57BL/6 time pregnant E18 female mice from Charles River Labs were anesthetized and killed by cervical dislocation following our Institutional Animal Care and Use Committee (IACUC) regulations and approved protocol. Embryos were removed and placed in cold Hibernate A (available from Brain bits, Springfield, Ill., USA), and all of the following steps were performed in ice-cold Hibernate A, under a stereoscopic (dissection) microscope placed in a laminar flow hood. Fetal brains were removed carefully and fore brain were separated. Then, the hippocampus, including the cortex surrounding the area of the hippocampus, was dissected and cut into small pieces using microsurgical scissors. The cut tissue was transferred with number 5 forceps to 15 ml tubes containing 0.1% trypsin in Versene (Invitrogen Life Technologies, Grand Island, N.Y., USA) and incubated for 15 min at 37° C. followed by inactivation with 10% fetal bovine serum (FBS) in Neurobasal complete medium (Neurobasal Medium supplemented with 2×B-27, 0.30% glutamine, and penicillin/streptomycin 0.1 mg/ml and 0.1 U/ml respectively). All medium components were purchased from Invitrogen, Grand Island, N.Y., USA. […]
To study any toxic effect of the peptides, mouse E18 primary hippocampal neurons were treated with the five BDNF peptides individually for up to 5 days at different doses [5 nM, 25 nM, 50 nM (data not shown), 100 nM (0.1 μM), 1000 nM (1 μM), and 10,000 nM (10 μM)]. […] Accordingly, there was no significant change in the viability of cells treated with any of the peptides as evaluated by the lactate dehydrogenase (LDH) assay (see FIG. 2B). […]

[2] = system: mouse E18 hippocampal neurons; assay: Immunocytochemistry of neuronal markers; type: cell-based; settings: 1 μM, 5 days, vs vehicle
Method: For recovering proteins, cells were seeded in 6-well dishes coated with poly-D-lysine (SigmaAldrich, St. Louis, Mo., USA), 50 μg/ml for an overnight, at a density of 1×10^6 cells/well. For immunocytochemistry, cells were seeded onto 5 mm cover slips coated with poly-D-lysine at a density of 7×10^4 cells/well in 100 μl Defined Medium in 96 well plates. The cells were cultured for four days in vitro prior to the beginning of the treatment with the peptides. The treatment with the peptides was done for five days (starting at DIV 4 and finishing at DIV 9). The culture medium was exchanged completely at the beginning of the treatment with a test peptide (at DIV4), and every 72 h until DIV 9.
After 5 days of treatment, cells seeded on cover slips were fixed in 4% paraformaldehyde (Electron Microscopy Sciences, PA, USA) for 30 min at room temperature, and then washed 2× in PBS for storage at 4° C. prior to staining. Cells were permeabilized in 0.2% Triton-X-100 in PBS for 30 min at 25° C. and incubated in blocking buffer (1% BSA w/v, 0.2% Triton-X-100 v/v in PBS) for 60 min at 25° C. The cells were then incubated with primary antibodies at the appropriate dilutions in blocking buffer at 4° C. for 16 h, washed 3×10 min with 0.2% Triton X100 in PBS, and incubated with fluorescently-labeled secondary antibodies diluted in blocking buffer for 1 h at 25° C. in the dark. Cover slips were washed 3×10 min in 0.2% Triton X-100 in PBS and mounted on glass slides with GelMount (Biomeda, Foster City, Calif., USA). The following primary antibodies were used: rabbit polyclonal anti-GFAP (1:500; Sigma-Aldrich, St. Louis, Mo., USA); rabbit polyclonal anti-NFM (1:200; Chemicon/Millipore, Billerica, Mass., USA); mouse monoclonal anti-NeuN (1:300; Millipore, Billerica, Mass., USA); rabbit polyclonal anti-Tuj-1, 0—III-tubulin (1:800; Covance, Emeryville, Calif., USA); mouse monoclonal SMI 52 to the adult isoforms of MAP-2, MAP2a,b (1:1000; Covance, Emeryville, Calif., USA); rabbit polyclonal anti-synapsin I (1:2000; Stressgen, Farmingdale, N.Y., USA); and rabbit monoclonal anti-PSD95 (1:100; Cell Signaling, Danvers, Mass., USA). Secondary goat anti-mouse and anti-rabbit IgGs conjugated with AlexaFluor 594 were used at 1:1000 (Molecular Probes, Carlsbad, Calif., USA). The nuclei were stained with 1 μM TOPRO in PBS (Invitrogen, Grand Island, N.Y., USA). Mounted cover slips were examined using 40× oil immersion objective of a Nikon 90i fluorescent microscope equipped with Nikon C1 three-laser confocal system and a Nikon DS U1 digital camera, and analyzed with EZ-C1 Viewer Image software, Version 6.0. […]

Substance	cell death (LDH assay) vs vehicle treated cells ([1]; 0.1 μM)	cell death (LDH assay) vs vehicle treated cells ([1]; 1 μM)	expression of 0-III-tubulin (immunocytochemistry) [2]	expression of MAP2 (immunocytochemistry) [2]	expression of NFM (immunocytochemistry) [2]	expression of NeuN (immunocytochemistry) [2]
Ac-S-KKR-CONH2 [Peptide B-3]	significant reduction in cell death	significant reduction in cell death	–	–	–	–
Ac-I-K-R-G-CONH2 [Peptide B-5]	–	–	induced an increase	induced an increase	induced an increase	induced an increase
